The text below walks through data of article PMC10170656 (RSC Chemical Biology, 2023).

Each structure is given as a SMILES string. “Also recorded” adds a separate entry of the source. A value given as a limit tells only on which side of the number the result lay.

One data set has as its target TDP1 (Homo sapiens, UniProt Q9NUW8). Description: biochemical. Particulars: TDP1 IC50, Table 2: triazole, ether and phthalic acid isostere derivatives.
The next data set has as its target T1, TDP2 (Homo sapiens, UniProt O95551).
T1 sequence (O95551 1-362): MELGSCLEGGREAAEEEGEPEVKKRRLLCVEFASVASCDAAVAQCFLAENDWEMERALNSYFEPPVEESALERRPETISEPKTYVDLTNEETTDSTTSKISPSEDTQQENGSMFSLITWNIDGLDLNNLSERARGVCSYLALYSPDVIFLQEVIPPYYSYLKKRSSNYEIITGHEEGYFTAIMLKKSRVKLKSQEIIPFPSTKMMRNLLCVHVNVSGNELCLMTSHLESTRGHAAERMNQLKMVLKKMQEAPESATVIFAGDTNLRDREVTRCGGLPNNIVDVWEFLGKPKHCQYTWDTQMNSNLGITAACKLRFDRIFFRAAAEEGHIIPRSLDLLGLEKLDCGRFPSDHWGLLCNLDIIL
Format: biochemical.

Data set [1] can be described thus: Survival curve and cytotoxicity in HCT116 cells. Format: cell-based. The settings on record: human, HCT116 cells (colon cancer cell line).
The subject of a further data set is HCT116 cells. Kind of data set: Synergistic effect of TDP1 inhibitors with camptothecin. Particulars: concentrations below CC50, 72 h. Format: cell-based, human.

Sequence of TDP1 (Q9NUW8 whole entry): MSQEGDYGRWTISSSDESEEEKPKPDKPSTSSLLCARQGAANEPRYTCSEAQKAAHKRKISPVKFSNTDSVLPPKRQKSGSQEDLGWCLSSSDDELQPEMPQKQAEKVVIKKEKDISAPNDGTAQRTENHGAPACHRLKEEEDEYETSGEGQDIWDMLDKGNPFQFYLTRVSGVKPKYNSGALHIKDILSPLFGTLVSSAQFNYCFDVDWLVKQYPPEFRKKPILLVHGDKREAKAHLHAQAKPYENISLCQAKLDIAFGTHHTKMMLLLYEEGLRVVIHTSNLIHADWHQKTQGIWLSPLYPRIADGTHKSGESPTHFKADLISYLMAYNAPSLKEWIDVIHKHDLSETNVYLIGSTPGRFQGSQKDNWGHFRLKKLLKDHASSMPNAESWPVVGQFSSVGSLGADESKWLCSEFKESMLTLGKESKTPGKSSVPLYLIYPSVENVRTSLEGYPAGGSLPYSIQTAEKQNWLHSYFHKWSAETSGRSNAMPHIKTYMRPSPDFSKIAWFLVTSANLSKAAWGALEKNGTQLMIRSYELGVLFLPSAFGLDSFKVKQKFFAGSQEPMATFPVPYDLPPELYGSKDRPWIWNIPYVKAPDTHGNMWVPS

Compound `N#Cc1ccc(-c2ccc(Cn3cc(-c4ccc(-c5nc6cc(-c7ccccc7)ccn6c5Nc5ccc(C(=O)O)cc5)cc4)nn3)cc2)nc1` [Compound 7d] came in with an IC50 against TDP1 of 3.3 ± 0.2 µM. The “inhibitory potency against TDP1 relative to TDP2” value against TDP2 is listed as 8 fold. The compound also showed a cytotoxic concentration (CC50) at 72 h in data set [1] of 136 µM. Further, the “synergy with the TOP1 inhibitor CPT” value with HCT116 cells is “act synergistically; also recorded: synergize”.

Turning to `O=C(O)c1ccc(Nc2c(-c3ccccc3)nc3cc(-c4ccccc4)ccn23)cc1C(=O)O` [Compound 9a, 4-((2,7-diphenylimidazo[1,2-a]pyridin-3-yl)amino)phthalic acid], on TDP1, the half-inhibitory concentration (IC50) was above 100 µM.

Regarding `O=C(O)c1ccc(Nc2c(-c3ccc(CCOCc4ccc(-c5ccccc5)cc4)cc3)nc3cc(-c4ccccc4)ccn23)cc1C(=O)O` [Compound 9b, 4-((2-(4-(2-([1,1'-biphenyl]-4-ylmethoxy)ethyl)phenyl)-7-phenylimidazo[1,2-a]pyridin-3-yl)amino)phthalic acid], half-maximal inhibition at TDP1 (IC50) required 11.3 ± 1.93 µM.

With `O=C(O)c1ccc(Nc2c(-c3ccc(CCOCc4ccc(-c5ccccn5)cc4)cc3)nc3cc(-c4ccccc4)ccn23)cc1C(=O)O` [Compound 9c, 4-((7-phenyl-2-(4-(2-((4-(pyridin-2-yl)benzyl)oxy)ethyl)phenyl)imidazo[1,2-a]pyridin-3-yl)amino)phthalic acid], on TDP1, the half-inhibitory concentration (IC50) is 19.8 ± 1.35 µM.
